From patent US20190100534A1, “Cephem Compounds with Latent Reactive Groups” (Gladius Pharmaceuticals, Inc., priority 2017, published 2019)

Assays:
Assay in all cases: MIC determination
[1] = tested on: Pseudomonas aeruginosa (PA); type: cell-based; details: Pseudomonas aeruginosa; PA; CAMH broth, 20 μM Apo-Transferrin, 37° C., 18 hours; read-out: Minimum Inhibitory Concentrations, PA
Outline: (§1)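 Overnight (18 h, 37 °C) microdilution assay. Pre-grown LB cultures were brought to 0.08-0.1 OD600 in cation-adjusted Mueller-Hinton broth; wells contained 20 μM apo-transferrin and compound between 64 and 0.125 μg/mL. Lowest clear-well concentration recorded as MIC.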

[2] = tested on: Pseudomonas aeruginosa PA (URMC-2); type: cell-based; details: Pseudomonas aeruginosa; PA (URMC-2); CAMH broth, 20 μM Apo-Transferrin, 37° C., 18 hours; read-out: Minimum Inhibitory Concentrations, PA (URMC-2)
Outline: as §1

[3] = tested on: Pseudomonas aeruginosa PA (URMC-3); type: cell-based; details: Pseudomonas aeruginosa; PA (URMC-3); CAMH broth, 20 μM Apo-Transferrin, 37° C., 18 hours; read-out: Minimum Inhibitory Concentrations, PA (URMC-3)
Outline: as §1

[4] = tested on: Pseudomonas aeruginosa PA-RR-(98023895); type: cell-based; details: Pseudomonas aeruginosa; PA-RR-(98023895); CAMH broth, 20 μM Apo-Transferrin, 37° C., 18 hours; read-out: Minimum Inhibitory Concentrations, PA-RR-(98023895)
Outline: as §1

[5] = tested on: Pseudomonas aeruginosa PA-RR-(G7294437); type: cell-based; details: Pseudomonas aeruginosa; PA-RR-(G7294437); CAMH broth, 20 μM Apo-Transferrin, 37° C., 18 hours; read-out: Minimum Inhibitory Concentrations, PA-RR-(G7294437)
Outline: as §1

[6] = tested on: Pseudomonas aeruginosa PA-RR-(G7304100); type: cell-based; details: Pseudomonas aeruginosa; PA-RR-(G7304100); CAMH broth, 20 μM Apo-Transferrin, 37° C., 18 hours; read-out: Minimum Inhibitory Concentrations, PA-RR-(G7304100)
Outline: as §1

[7] = tested on: A. baumannii (JMI OXA-58); type: cell-based, Acinetobacter baumannii; details: Acinetobacter baumannii, class D carbapenemase producer, CAMH broth, 20 μM Apo-Transferrin, 37° C., 18 hours, read-out: Minimum Inhibitory Concentrations, A. baumannii (JMI OXA-58)
Protocol: (§2) Sterile technique was used throughout these experiments. Suspensions of organisms were removed from storage (−80° C.) and partially thawed. Partially thawed organisms (1 μL) were inoculated into 3 mL sterile LB Broth in a sterile culture tube and capped, then cultured at 37° C. with shaking for 4-5 hours until the optical density at 600 nm (OD600) was greater than 0.1 on a single beam spectrophotometer.
(§3) The concentration of organisms was adjusted to 0.08-0.1 OD600 (0.5 McFarland units) by dilution with sterile cation-adjusted Meuller-Hinton (CAMH) broth. The suspensions were used within 30 minutes of preparation.
(§4) A stock solution was made of each test compound by measuring 6.4 mg of the compound on an analytical balance and dissolving it in DMSO (1 mL) to get a transparent solution. The solutions were stored at −20° C. and thawed prior to use.
(§5) Sterile CAMH broth (200 μL) containing 20 μM Apo-Transferrin was pipetted into the first row of 8 columns of a sterile, round-bottomed, transparent, 96-well microplate using an 8-channel pipette equipped with sterile tips. One hundred μL was pipetted into the wells of the remaining 11 rows.
(§6) With an 8-channel pipette equipped with sterile tips, 100 μL of the first row solution was transferred to the second row and mixed. The process was repeated for the second to third rows and continued through row 11. One hundred μL from row 11 was removed and discarded so that all 12 rows contained 100 μL. Row 12 contained no compound and rows 1-11 contained 64, 32, 16, 8, 4, 2, 1, 0.5, 0.25, 0.125, […] of a given compound.
(§7) Inoculant suspensions (0.5 μL) were added to the 12 wells of each column. The plates were then covered and incubated at 37° C. overnight for 18 hours.
(§8) For each organism the MIC was determined by identifying the transparent well with the lowest test compound concentration.

A. baumannii = type: cell-based, Acinetobacter baumannii; details: Acinetobacter baumannii; A. baumannii; CAMH broth, 20 μM Apo-Transferrin, 37° C., 18 hours; read-out: Minimum Inhibitory Concentrations, A. baumannii
Protocol: as §2, §3, §4, §5, §6, §7, §8

EC (RR -1) = type: cell-based, Escherichia coli; details: CAMH broth, 20 μM Apo-Transferrin, 37° C., 18 hours
Protocol: as §2, §3, §4, §5, §6, §7, §8

EC (RR -2) = type: cell-based, Escherichia coli; details: CAMH broth, 20 μM Apo-Transferrin, 37° C., 18 hours
Protocol: as §2, §3, §4, §5, §6, §7, §8

EC (URMC-1) = type: cell-based, Escherichia coli; details: Escherichia coli, CAMH broth, 20 μM Apo-Transferrin, 37° C., 18 hours, read-out: Minimum Inhibitory Concentrations, EC (URMC-1)
Protocol: as §2, §3, §4, §5, §6, §7, §8

EC (URMC-2) = type: cell-based, Escherichia coli; details: Escherichia coli, CAMH broth, 20 μM Apo-Transferrin, 37° C., 18 hours, read-out: Minimum Inhibitory Concentrations, EC (URMC-2)
Protocol: as §2, §3, §4, §5, §6, §7, §8

EC (URMC-3) = type: cell-based, Escherichia coli; details: Escherichia coli, CAMH broth, 20 μM Apo-Transferrin, 37° C., 18 hours, read-out: Minimum Inhibitory Concentrations, EC (URMC-3)
Protocol: as §2, §3, §4, §5, §6, §7, §8

EC(ATCC NDM-1) = type: cell-based, Escherichia coli; details: Escherichia coli, CAMH broth, 20 μM Apo-Transferrin, 37° C., 18 hours, read-out: Minimum Inhibitory Concentrations, EC(ATCC NDM-1)
Protocol: as §2, §3, §4, §5, §6, §7, §8

EC(JMI OXA-48) = type: cell-based, Escherichia coli; details: Escherichia coli, CAMH broth, 20 μM Apo-Transferrin, 37° C., 18 hours, read-out: Minimum Inhibitory Concentrations, EC(JMI OXA-48)
Protocol: as §2, §3, §4, §5, §6, §7, §8

EC(KB1 CTX-M-15) = type: cell-based, Escherichia coli; details: Escherichia coli, CAMH broth, 20 μM Apo-Transferrin, 37° C., 18 hours, read-out: Minimum Inhibitory Concentrations, EC(KB1 CTX-M-15)
Protocol: as §2, §3, §4, §5, §6, §7, §8

EC(KB2 CTX-M-15) = type: cell-based, Escherichia coli; details: Escherichia coli, CAMH broth, 20 μM Apo-Transferrin, 37° C., 18 hours, read-out: Minimum Inhibitory Concentrations, EC(KB2 CTX-M-15)
Protocol: as §2, §3, §4, §5, §6, §7, §8

KP (ATCC KPC-3) = type: cell-based, Klebsiella pneumoniae; details: CAMH broth, 20 μM Apo-Transferrin, 37° C., 18 hours
Protocol: as §2, §3, §4, §5, §6, §7, §8

KP (GJ 5659 TEM-26) = type: cell-based, Klebsiella pneumoniae; details: CAMH broth, 20 μM Apo-Transferrin, 37° C., 18 hours
Protocol: as §2, §3, §4, §5, §6, §7, §8

KP (RR -1) = type: cell-based, Klebsiella pneumoniae; details: CAMH broth, 20 μM Apo-Transferrin, 37° C., 18 hours
Protocol: as §2, §3, §4, §5, §6, §7, §8

KP (URMC-1) = type: cell-based, Klebsiella pneumoniae; details: CAMH broth, 20 μM Apo-Transferrin, 37° C., 18 hours
Protocol: as §2, §3, §4, §5, §6, §7, §8

KP (URMC-2) = type: cell-based, Klebsiella pneumoniae; details: CAMH broth, 20 μM Apo-Transferrin, 37° C., 18 hours
Protocol: as §2, §3, §4, §5, §6, §7, §8

KP (URMC-3) = type: cell-based, Klebsiella pneumoniae; details: CAMH broth, 20 μM Apo-Transferrin, 37° C., 18 hours
Protocol: as §2, §3, §4, §5, §6, §7, §8

KP(GJ 5934 TEM-26) = type: cell-based, Klebsiella pneumoniae; details: CAMH broth, 20 μM Apo-Transferrin, 37° C., 18 hours
Protocol: as §2, §3, §4, §5, §6, §7, §8

KP(JMI KPC-2) = type: cell-based, Klebsiella pneumoniae; details: CAMH broth, 20 μM Apo-Transferrin, 37° C., 18 hours
Protocol: as §2, §3, §4, §5, §6, §7, §8

EA (URMC -3) = type: cell-based; details: CAMH broth, 20 μM Apo-Transferrin, 37° C., 18 hours
Protocol: as §2, §3, §4, §5
To each well of the first row was pipetted 2.0 μL of the 6.4 mg/mL stock test compound stock solution to give 1:100 dilutions and a final concentration of 64 μg/mL and mixed.
as §6, §7, §8

ENC (ATCC NDM-1) = type: cell-based, Enterobacter cloacae; details: CAMH broth, 20 μM Apo-Transferrin, 37° C., 18 hours
Protocol: as §2, §3, §4, §5, §6, §7, §8

SMILES | MIC [1] [µg/mL] | MIC [2] [µg/mL] | MIC [3] [µg/mL] | MIC [4] [µg/mL] | MIC [5] [µg/mL] | MIC [6] [µg/mL] | MIC [7] [µg/mL] | MIC (A. baumannii) [µg/mL] | Mimimum Inhibitory Concentrations, EC (RR -1) (EC (RR -1)) [microgram/mL] | Mimimum Inhibitory Concentrations, EC (RR -2) (EC (RR -2)) [microgram/mL] | MIC (EC (URMC-1)) [µg/mL] | MIC (EC (URMC-2)) [µg/mL] | MIC (EC (URMC-3)) [µg/mL] | MIC (EC(ATCC NDM-1)) [µg/mL] | MIC (EC(JMI OXA-48)) [µg/mL] | MIC (EC(KB1 CTX-M-15)) [µg/mL] | MIC (EC(KB2 CTX-M-15)) [µg/mL] | Minimum Inhibitory Concentrations, KP (ATCC KPC-3) (KP (ATCC KPC-3)) [microgram/mL] | Minimum Inhibitory Concentrations, KP (GJ 5659 TEM-26) (KP (GJ 5659 TEM-26)) [microgram/mL] | Mimimum Inhibitory Concentrations, KP (RR -1) (KP (RR -1)) [microgram/mL] | other results
CC(C)(O/N=C(\C(=O)N[C@@H]1C(=O)N2C(C(=O)O)=C(C=Cc3ccc(C[n+]4ccc(-c5ccc(O)c(O)c5)cc4)cc3)CS[C@H]12)c1csc(N)n1)C(=O)O (mixture of isomers) [Compound 412, 1-(4-((E/Z)-2-((6R,7R)-7-((Z)-2-(2-aminothiazol-4-yl)-2-(((2-carboxypropan-2-yl)oxy)imino)acetamido)-2-carboxy-8-oxo-5-thia-1-azabicyclo[4.2.0]oct-2-en-3-yl)vinyl)benzyl)-4-(3,4-dihydroxyphenyl)pyridin-1-ium] | 2 | 2 | ≤ 0.06 | 4 | 1 | ≤ 0.06 | > 64 | 8 | 0.25 | ≤0.06 | 0.25 | 4 | ≤ 0.06 | > 64 | 2 | 16 | 32 | >64 | 2 | 0.5 | Minimum Inhibitory Concentrations, KP (URMC-1) (KP (URMC-1)): ≤0.06 microgram/mL; Minimum Inhibitory Concentrations, KP (URMC-2) (KP (URMC-2)): ≤0.06 microgram/mL; Minimum Inhibitory Concentrations, KP (URMC-3) (KP (URMC-3)): 0.25 microgram/mL; Minimum Inhibitory Concentrations, KP(GJ 5934 TEM-26) (KP(GJ 5934 TEM-26)): 0.5 microgram/mL; Minimum Inhibitory Concentrations, KP(JMI KPC-2) (KP(JMI KPC-2)): 64 microgram/mL; Mimimum Inhibitory Concentrations, EA (URMC -3) (EA (URMC -3)): ≤0.06 microgram/mL; Mimimum Inhibitory Concentrations, ENC (ATCC NDM-1) (ENC (ATCC NDM-1)): >64 microgram/mL
CC(C)(O/N=C(\C(=O)N[C@@H]1C(=O)N2C(C(=O)O)=C(C=Cc3ccc(C[N+]4(C)CCc5cc(O)c(O)cc5C4)cc3)CS[C@H]12)c1csc(N)n1)C(=O)O (mixture of isomers) [Compound 407, 2-(4-((E/Z)-2-((6R,7R)-7-((Z)-2-(2-aminothiazol-4-yl)-2-(((2-carboxypropan-2-yl)oxy)imino)acetamido)-2-carboxy-8-oxo-5-thia-1-azabicyclo[4.2.0]oct-2-en-3 yl)vinyl)benzyl)-6,7-dihydroxy-2-methyl-1,2,3,4-tetrahydroisoquinolin-2-ium] | 2 | 4 | 0.25 | 0.13 | 0.03 | 0.03 | 16 | 2 | 0.13 | 0.13 | 0.25 | 0.25 | ≤ 0.06 | > 64 | 16 | > 64 | > 64 | 64 | 2 | 0.5 | Minimum Inhibitory Concentrations, KP (URMC-1) (KP (URMC-1)): 0.13 microgram/mL; Minimum Inhibitory Concentrations, KP (URMC-2) (KP (URMC-2)): 0.25 microgram/mL; Minimum Inhibitory Concentrations, KP (URMC-3) (KP (URMC-3)): 0.13 microgram/mL; Minimum Inhibitory Concentrations, KP(GJ 5934 TEM-26) (KP(GJ 5934 TEM-26)): 2 microgram/mL; Minimum Inhibitory Concentrations, KP(JMI KPC-2) (KP(JMI KPC-2)): 16 microgram/mL; Mimimum Inhibitory Concentrations, EA (URMC -3) (EA (URMC -3)): 2 microgram/mL; Mimimum Inhibitory Concentrations, ENC (ATCC NDM-1) (ENC (ATCC NDM-1)): >64 microgram/mL
